# From ChEMBL document CHEMBL1201862, “PubChem BioAssay data set” (2004)
#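 The compound was tested at five concentrations on cells cultured in 96-well plates, with a 48-hour exposure period. GI50 is the concentration that inhibits growth by half.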 Activity calls are given as the source filed them. Cut-off read from the data, not from the text of the source: active = GI50 up to about 1.1 µM and inactive = higher.
# Experiments:
# Assay in all cases: NCI anticancer screen, dose series, 48 h
# SK-OV-3 = system: SK-OV-3
# Malme-3M = system: Malme-3M
# RPMI-8226 = system: RPMI-8226
# OVCAR-4 = system: OVCAR-4
# ACHN = system: ACHN
# HCC 2998 = system: HCC 2998
# M14 = system: M14
# LOX IMVI = system: LOX IMVI
# HCT-116 = system: HCT-116
# NCI-H226 = system: NCI-H226
# HOP-62 = system: HOP-62
# MCF7 = system: MCF7
# OVCAR-5 = system: OVCAR-5
# MDA-MB-231 = system: MDA-MB-231
# K562 = system: K562
# DU-145 = system: DU-145
# 786-0 = system: 786-0
# HL-60 = system: HL-60
# SR = system: SR
# TK-10 = system: TK-10
SMILES,GI50 (SK-OV-3),GI50 (Malme-3M),GI50 (RPMI-8226),GI50 (OVCAR-4),GI50 (ACHN),GI50 (HCC 2998),GI50 (M14),GI50 (LOX IMVI),GI50 (HCT-116),GI50 (NCI-H226),GI50 (HOP-62),GI50 (MCF7),GI50 (OVCAR-5),GI50 (MDA-MB-231),GI50 (K562),GI50 (DU-145),GI50 (786-0),GI50 (HL-60),GI50 (SR),GI50 (TK-10)
CC1CCC2N(C1)CC1C3(O)CC45OC6(O)C(O)CCC4(C)C6CCC5C3(O)CC(O)C1(O)C2(C)O (centres undefined),> 100 µM (inactive),> 100 µM (inactive),> 100 µM (inactive),> 100 µM (inactive),> 100 µM (inactive),> 100 µM (inactive),> 100 µM (inactive),> 100 µM (inactive),> 100 µM (inactive),> 100 µM (inactive),> 100 µM (inactive),> 100 µM (inactive),> 100 µM (inactive),> 100 µM (inactive),> 100 µM (inactive),> 100 µM (inactive),> 100 µM (inactive),> 100 µM (inactive),> 100 µM (inactive),> 100 µM (inactive)
COC(=O)c1cc(NC2OCC(OC(C)=O)C(OC(C)=O)C2OC(C)=O)nc(SC)c1C(=O)OC (centres undefined),–,–,> 100 µM (inactive),> 100 µM (inactive),> 100 µM (inactive),> 100 µM (inactive),> 100 µM (inactive),> 100 µM (inactive),> 100 µM (inactive),–,> 100 µM (inactive),> 100 µM (inactive),> 100 µM (inactive),> 100 µM (inactive),–,> 100 µM (inactive),> 100 µM (inactive),74 µM (inactive),> 100 µM (inactive),> 100 µM (inactive)
O=[N+]([O-])c1ccccc1S(=O)(=O)c1cccc2c1NCCC2,68.4 µM (inactive),48.1 µM (inactive),> 100 µM (inactive),> 100 µM (inactive),55.8 µM (inactive),56.8 µM (inactive),82.8 µM (inactive),39.1 µM (inactive),42.7 µM (inactive),91 µM (inactive),72.6 µM (inactive),38.4 µM (inactive),> 100 µM (inactive),> 100 µM (inactive),21.3 µM (inactive),60.5 µM (inactive),> 100 µM (inactive),24 µM (inactive),48.2 µM (inactive),> 100 µM (inactive)
COC(=O)c1ccccc1/N=C(/NC1CCCCCC1)NS(=O)(=O)c1ccc(C)cc1,> 100 µM (inactive),–,> 100 µM (inactive),> 100 µM (inactive),> 100 µM (inactive),> 100 µM (inactive),> 100 µM (inactive),> 100 µM (inactive),> 100 µM (inactive),> 100 µM (inactive),99.3 µM (inactive),99.1 µM (inactive),> 100 µM (inactive),76.9 µM (inactive),> 100 µM (inactive),58.6 µM (inactive),> 100 µM (inactive),96.2 µM (inactive),> 100 µM (inactive),> 100 µM (inactive)
O=C(Nc1ccccn1)/C(=C\C(=O)c1ccc(Cl)cc1)Nc1ccccc1,> 10 µM (inactive),> 10 µM (inactive),> 10 µM (inactive),> 10 µM (inactive),–,> 10 µM (inactive),> 10 µM (inactive),> 10 µM (inactive),–,–,> 10 µM (inactive),> 10 µM (inactive),–,> 10 µM (inactive),> 10 µM (inactive),> 10 µM (inactive),7.16 µM (inactive),> 10 µM (inactive),> 10 µM (inactive),> 10 µM (inactive)
NNC(=O)CCc1ccc2ccc3ccccc3c2c1,> 100 µM (inactive),79.1 µM (inactive),72.1 µM (inactive),74.6 µM (inactive),> 100 µM (inactive),> 100 µM (inactive),71.8 µM (inactive),98.9 µM (inactive),> 100 µM (inactive),15.9 µM (inactive),> 100 µM (inactive),> 100 µM (inactive),> 100 µM (inactive),> 100 µM (inactive),> 100 µM (inactive),> 100 µM (inactive),94.4 µM (inactive),0.312 µM (active),> 100 µM (inactive),> 100 µM (inactive)
CN1c2ccccc2C(=O)NC12CCN(CCCC(=O)c1ccc(F)cc1)CC2,> 100 µM (inactive),27.7 µM (inactive),33.1 µM (inactive),87.3 µM (inactive),> 100 µM (inactive),19.7 µM (inactive),15.5 µM (inactive),–,44.7 µM (inactive),> 100 µM (inactive),> 100 µM (inactive),55 µM (inactive),> 100 µM (inactive),40.9 µM (inactive),25.9 µM (inactive),> 100 µM (inactive),74.3 µM (inactive),30.7 µM (inactive),32.4 µM (inactive),–
OC1(c2ccccc2)CC2CCC(C1)N2CCc1ccccc1 (centres undefined),> 100 µM (inactive),> 100 µM (inactive),30.3 µM (inactive),72.8 µM (inactive),34.7 µM (inactive),58.3 µM (inactive),35.6 µM (inactive),54.7 µM (inactive),40.3 µM (inactive),61 µM (inactive),45.4 µM (inactive),28.6 µM (inactive),26.1 µM (inactive),73.6 µM (inactive),45.5 µM (inactive),48.4 µM (inactive),> 100 µM (inactive),58.9 µM (inactive),> 100 µM (inactive),> 100 µM (inactive)
CC(C)NC(=O)CN1CCN(C2=C(Cl)C(=O)c3c(O)ccc(O)c3C2=O)CC1,10.1 µM (inactive),1.04 µM (active),1.99 µM (inactive),1.71 µM (inactive),2.15 µM (inactive),2.92 µM (inactive),1.46 µM (inactive),0.65 µM (active),1.2 µM (inactive),21.5 µM (inactive),7.45 µM (inactive),1.49 µM (inactive),2.92 µM (inactive),1.97 µM (inactive),0.341 µM (active),2.71 µM (inactive),2.56 µM (inactive),0.187 µM (active),0.148 µM (active),2.07 µM (inactive)
NC(CCCCCCCCCCP(=O)(O)O)C(=O)O (centres undefined),> 100 µM (inactive),–,> 100 µM (inactive),> 100 µM (inactive),> 100 µM (inactive),> 100 µM (inactive),> 100 µM (inactive),> 100 µM (inactive),> 100 µM (inactive),–,–,> 100 µM (inactive),> 100 µM (inactive),> 100 µM (inactive),> 100 µM (inactive),> 100 µM (inactive),–,> 100 µM (inactive),> 100 µM (inactive),> 100 µM (inactive)
COc1cccc(N(CN2C(=O)CCC2C(=O)O)C(C)=O)c1 (centres undefined),> 100 µM (inactive),> 100 µM (inactive),> 100 µM (inactive),> 100 µM (inactive),> 100 µM (inactive),> 100 µM (inactive),> 100 µM (inactive),> 100 µM (inactive),> 100 µM (inactive),> 100 µM (inactive),> 100 µM (inactive),> 100 µM (inactive),> 100 µM (inactive),> 100 µM (inactive),> 100 µM (inactive),> 100 µM (inactive),> 100 µM (inactive),> 100 µM (inactive),> 100 µM (inactive),> 100 µM (inactive)
CCc1nc(N)nc(N)c1-c1ccc([N+](=O)[O-])c(NCc2ccccc2)c1,20.4 µM (inactive),–,11.6 µM (inactive),15.2 µM (inactive),15.3 µM (inactive),15.2 µM (inactive),12.4 µM (inactive),14.5 µM (inactive),7.36 µM (inactive),18.7 µM (inactive),12.4 µM (inactive),13.6 µM (inactive),22.4 µM (inactive),14.8 µM (inactive),5.2 µM (inactive),14.9 µM (inactive),13.9 µM (inactive),5.82 µM (inactive),10.3 µM (inactive),20.2 µM (inactive)
CCOC(=O)Cn1c(=O)c2cc(C)cc3c(Cl)nc4c(OC)c(OC)cc1c4c32,> 100 µM (inactive),44.2 µM (inactive),36.5 µM (inactive),> 100 µM (inactive),> 100 µM (inactive),> 100 µM (inactive),> 100 µM (inactive),> 100 µM (inactive),> 100 µM (inactive),> 100 µM (inactive),> 100 µM (inactive),72.8 µM (inactive),> 100 µM (inactive),> 100 µM (inactive),> 100 µM (inactive),> 100 µM (inactive),29.7 µM (inactive),> 100 µM (inactive),50 µM (inactive),> 100 µM (inactive)
